Data published in ChEMBL document CHEMBL1201862, “PubChem BioAssay data set” (2004).
Where “and” joins values, the source holds several entries; their conditions need not be identical. Equal entries are not always repeated.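 Cultured in 96-well plates, cells were exposed to test compound for 48 hours across five concentrations. GI50 marks 50% less growth.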 Calls of active or inactive are those of the source. Cut-off read from the data, not from the text of the source: active = GI50 up to about 1.1 µM and inactive = higher.

Assays:
Assay in all cases: NCI anticancer screen, dose series, 48 h
A498 = tested on: A498
A549 = tested on: A549
ACHN = tested on: ACHN
CCRF-CEM = tested on: CCRF-CEM
COLO 205 = tested on: COLO 205
DLD-1 = tested on: DLD-1
HCC 2998 = tested on: HCC 2998
HCT-116 = tested on: HCT-116
HL-60 = tested on: HL-60
HOP-18 = tested on: HOP-18
HOP-62 = tested on: HOP-62
HOP-92 = tested on: HOP-92
HT-29 = tested on: HT-29
IGROV-1 = tested on: IGROV-1
K562 = tested on: K562
KM12 = tested on: KM12
LXFL 529 = tested on: LXFL 529
M19-MEL = tested on: M19-MEL
MOLT-4 = tested on: MOLT-4
NCI-H226 = tested on: NCI-H226
NCI-H23 = tested on: NCI-H23
NCI-H460 = tested on: NCI-H460
NCI-H522 = tested on: NCI-H522
OVCAR-3 = tested on: OVCAR-3
OVCAR-5 = tested on: OVCAR-5
OVCAR-8 = tested on: OVCAR-8
RPMI-8226 = tested on: RPMI-8226
SF-268 = tested on: SF-268
SF-295 = tested on: SF-295
SF-539 = tested on: SF-539
SK-MEL-28 = tested on: SK-MEL-28
SK-MEL-5 = tested on: SK-MEL-5
SK-OV-3 = tested on: SK-OV-3
SNB-19 = tested on: SNB-19
SNB-75 = tested on: SNB-75
SW-620 = tested on: SW-620
TK-10 = tested on: TK-10
U-251 = tested on: U-251
UACC-257 = tested on: UACC-257
UACC-62 = tested on: UACC-62
UO-31 = tested on: UO-31
786-0 = tested on: 786-0
CAKI-1 = tested on: CAKI-1
DMS-114 = tested on: DMS-114
DMS-273 = tested on: DMS-273
EKVX = tested on: EKVX
HCT-15 = tested on: HCT-15
KM-20L2 = tested on: KM-20L2
LOX IMVI = tested on: LOX IMVI
M14 = tested on: M14
Malme-3M = tested on: Malme-3M
OVCAR-4 = tested on: OVCAR-4
SK-MEL-2 = tested on: SK-MEL-2
SN12C = tested on: SN12C
SNB-78 = tested on: SNB-78
RXF 393 = tested on: RXF 393
XF498 = tested on: XF498

Measured: GI50

Cc1ccc(N2C(=O)/C(=C3\SC(C(N)=O)=C(N)N3c3ccccc3)SC2=S)cc1
inactive: A498 4.73 µM | A549 > 100 µM | ACHN 66.1 µM | CCRF-CEM > 100 µM | COLO 205 > 100 µM | DLD-1 90.8 µM | HCC 2998 > 100 µM | HCT-116 71 µM | HL-60 > 100 µM | HOP-18 37.7 µM | HOP-62 25.8 µM | HOP-92 12.1 µM | HT-29 44.3 µM | IGROV-1 > 100 µM | K562 78.7 µM | KM12 > 100 µM | LXFL 529 > 100 µM | M19-MEL > 100 µM | MOLT-4 > 100 µM | NCI-H226 37.3 µM | NCI-H23 51.1 µM | NCI-H460 > 100 µM | NCI-H522 27.7 µM | OVCAR-3 90.2 µM | OVCAR-5 2.21 µM | OVCAR-8 46 µM | RPMI-8226 72.4 µM | SF-268 15.7 µM | SF-295 24.9 µM | SF-539 22.8 µM | SK-MEL-28 > 100 µM | SK-MEL-5 > 100 µM | SK-OV-3 28.2 µM | SNB-19 57.5 µM | SNB-75 7.91 µM | SW-620 > 100 µM | TK-10 > 100 µM | U-251 71.6 µM | UACC-257 > 100 µM | UACC-62 > 100 µM | UO-31 > 100 µM

COS(=O)(=O)OCCC(NC(=O)OCc1ccccc1)C(=O)OCc1ccccc1 (stereo not drawn)
> 100 µM: HCT-15
inactive: 786-0 > 100 µM | A498 > 100 µM | A549 > 100 µM | ACHN > 100 µM | CAKI-1 > 100 µM | CCRF-CEM > 100 µM | COLO 205 > 100 µM | DLD-1 > 100 µM | DMS-114 > 100 µM | DMS-273 > 100 µM | EKVX > 100 µM | HCC 2998 66.4 µM | HCT-116 > 100 µM | HL-60 53.3 µM | HOP-18 > 100 µM | HOP-62 > 100 µM | HOP-92 > 100 µM | HT-29 59.2 µM | IGROV-1 > 100 µM | K562 > 100 µM | KM-20L2 > 100 µM | KM12 > 100 µM | LOX IMVI > 100 µM | LXFL 529 > 100 µM | M14 > 100 µM | M19-MEL > 100 µM | MOLT-4 > 100 µM | Malme-3M > 100 µM | NCI-H226 > 100 µM | NCI-H23 > 100 µM | NCI-H460 > 100 µM | NCI-H522 > 100 µM | OVCAR-3 > 100 µM | OVCAR-4 > 100 µM | OVCAR-5 > 100 µM | OVCAR-8 > 100 µM | RPMI-8226 > 100 µM | SF-268 > 100 µM | SF-295 > 100 µM | SF-539 > 100 µM | SK-MEL-28 > 100 µM | SK-MEL-2 > 100 µM | SK-MEL-5 > 100 µM | SK-OV-3 > 100 µM | SN12C > 100 µM | SNB-19 > 100 µM | SNB-75 71.6 µM | SNB-78 > 100 µM | SW-620 > 100 µM | TK-10 > 100 µM | U-251 > 100 µM | UACC-257 > 100 µM | UACC-62 > 100 µM | UO-31 > 100 µM

CC1(O)CC2C(CC1SCc1ccccc1)C2(C)C (stereo not drawn)
inactive: 786-0 15.8 µM and 21.7 µM | A498 18.3 µM and 28.1 µM | ACHN 16.8 µM and 18.2 µM | CAKI-1 15.8 µM and 12.5 µM | COLO 205 20 µM and 16.9 µM | DMS-114 14.5 µM | DMS-273 14.2 µM and 17.9 µM | EKVX 16.7 µM and 29.7 µM | HCT-116 16.6 µM and 21.2 µM | HOP-62 24.9 µM and 16.6 µM | HT-29 16.4 µM and 23.1 µM | KM-20L2 20.6 µM and 26.6 µM | KM12 19.3 µM and 25.3 µM | LOX IMVI 17.1 µM and 15.5 µM | M14 30.1 µM and 15.5 µM | Malme-3M 22 µM and 16.3 µM | NCI-H226 21.5 µM and 16 µM | NCI-H23 23.3 µM and 14.2 µM | NCI-H460 14.6 µM and 22.9 µM | NCI-H522 13.7 µM and 11.9 µM | OVCAR-3 12.3 µM and 16.9 µM | OVCAR-5 17.9 µM and 17.1 µM | OVCAR-8 16.5 µM and 29.4 µM | RPMI-8226 11.9 µM and 19.8 µM | RXF 393 15.3 µM and 18.5 µM | SF-268 25.9 µM and 18.7 µM | SF-295 28.2 µM | SF-539 28.8 µM and 19.3 µM | SK-MEL-28 21 µM and 29.3 µM | SK-MEL-2 17.3 µM and 11.4 µM | SK-MEL-5 23.6 µM and 13.1 µM | SN12C 16.1 µM and 23.2 µM | SW-620 17.5 µM and 21.7 µM | U-251 16 µM and 21.2 µM | UACC-62 32.4 µM and 19.3 µM | XF498 20.5 µM and 15.2 µM
16.9 µM and 22.3 µM: HCT-15
